# Experimental data published in US6509351B1, “Phenyl- and pyridyl-tetrahydro-pyridines having TNF inhibiting activity” (Sanofi-Syntelabo, priority 1999, dated 2003).
# Where a name gives a salt, the structure may show the parent alone.
row,Compound,melting point [°C]
1,CCc1cc2ccc(CCN3CC=C(c4cccc(C(F)(F)F)c4)CC3)cc2cn1 (as salt: hydrochloride),230
2,Cc1ccc2ccc(CCN3CC=C(c4cccc(C(F)(F)F)c4)CC3)cc2n1 (as salt: hydrochloride),221
